The record followed here is patent US10913750B2, “Tubulin-binding compounds, compositions and uses related thereto” (The Regents of the University of California, priority 2015, dated 2021).

The subject of one test is M238. In words: CellTiter-Glo cell viability, M238. Format: cell-based. How it is done:
(§1) To determine if MI-181 had broad anti-cancer activity, we treated a diverse panel of cancer cell lines including cervical adenocarcinoma (HeLa), breast adenocarcinoma (MCF7), melanoma (M233), osteosarcoma (U205), acute lymphoblastic leukemia (CCRF-CEM), non-small cell lung carcinoma (NCI-H460), and breast adenocarcinoma (MCF7) with MI-181 and determined its cell viability IC50 (FIGS. 13A and 13B). […] Therefore, the efficacy of MI-181 was analyzed in a panel of melanoma cell lines with defined genetic backgrounds including BRAF^V600E and NRAS^Q61L mutations and varied sensitivities to Vemurafenib (BRAF inhibitor) and Trametinib (MEK inhibitor), which are currently used to treat BRAF^V600E melanomas^43,44 (FIG. 10c). […] As a general trend BRAF^V600E cell lines were slightly more sensitive than NRAS^Q61L cell lines and MI-181 was effective in Vemurafenib and Trametinib resistant cell lines (FIG. 10c and Table 3). Finally, we tested the ability of MI-181 to inhibit melanoma colony formation using the M233 and M308 cell lines (both resistant to Vemurafenib). Indeed, MI-181 was a potent inhibitor of colony formation (percentage colony formation for 10 nM MI-181=0.2±0.1 and 0.8±0.7; for 10 nM colchicine=0.1±0.06 and 1.5±0.5; and for 10 nM Vemurafenib=94±7 and 102±5) (FIG. 10d). Thus, MI-181 is a potent inhibitor of melanoma cell lines. […]

The subject of test [1] is panel of melanoma cell lines. In words: Cell viability in a panel of melanoma cell lines. Format: cell-based. The note with it: melanoma cell lines incl. BRAF V600E and NRAS Q61L mutations; read-out: IC50 across melanoma panel. How it is done: as §1
A further test has as its system cells. The experiment in a line: Immunoblot analysis of synchronized cells and drug washout (mitotic arrest reversibility). Format: cell-based. On the procedure:
Phospho-histone-H3-488 (Ser10) (p-H3-488, Cell Signaling), α-tubulin (Serotec), AurKB (BD Transduction), Anti-Centromere-Antibodies (ACA, Cortex Biochem), cyclin A and B (Santa Cruz Biotechnology), and SECURIN (Gene Tex). BubR1 and Bub1 were from Hongtao Yu. FITC-, Cy3- and Cy5-conjugated secondary antibodies were from Jackson Immuno Research.
Cells were synchronized in G1/S, released into the cell cycle in the presence of DMSO or MI-181, and cell extracts were prepared at several time points post-release. […] Additionally, the MI-182-induced mitotic arrest was reversible, as cells exited mitosis within 2 hours of drug washout (FIG. 9).

The target in the next test is T1, tubulin (Sus scrofa, UniProt P02554).
T1 construct: purchased Cytoskeleton Inc. BK011P
T1 sequence (P02554 whole entry): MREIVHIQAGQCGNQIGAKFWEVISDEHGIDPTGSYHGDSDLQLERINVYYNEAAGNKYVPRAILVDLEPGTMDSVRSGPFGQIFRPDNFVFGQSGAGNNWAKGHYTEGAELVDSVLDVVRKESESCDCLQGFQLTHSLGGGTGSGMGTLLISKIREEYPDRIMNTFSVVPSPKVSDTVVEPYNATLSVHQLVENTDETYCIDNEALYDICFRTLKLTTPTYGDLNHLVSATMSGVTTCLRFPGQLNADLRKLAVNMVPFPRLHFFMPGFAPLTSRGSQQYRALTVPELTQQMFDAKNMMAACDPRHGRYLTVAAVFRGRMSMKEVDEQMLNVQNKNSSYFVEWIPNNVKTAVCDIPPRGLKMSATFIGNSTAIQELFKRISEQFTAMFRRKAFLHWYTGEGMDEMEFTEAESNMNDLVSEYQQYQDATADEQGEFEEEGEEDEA
T1 sequence (P02550 whole entry partner): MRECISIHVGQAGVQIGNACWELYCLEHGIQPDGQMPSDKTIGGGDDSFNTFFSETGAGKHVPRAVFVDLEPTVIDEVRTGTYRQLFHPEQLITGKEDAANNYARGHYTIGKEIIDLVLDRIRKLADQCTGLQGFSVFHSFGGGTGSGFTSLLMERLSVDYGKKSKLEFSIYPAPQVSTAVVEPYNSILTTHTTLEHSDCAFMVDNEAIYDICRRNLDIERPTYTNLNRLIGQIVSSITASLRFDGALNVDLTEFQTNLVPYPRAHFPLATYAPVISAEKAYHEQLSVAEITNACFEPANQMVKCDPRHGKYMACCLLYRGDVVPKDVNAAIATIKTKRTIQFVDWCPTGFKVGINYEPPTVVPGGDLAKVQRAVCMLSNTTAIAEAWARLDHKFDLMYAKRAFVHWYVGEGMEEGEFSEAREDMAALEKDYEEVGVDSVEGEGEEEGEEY
The experiment in a line: In vitro tubulin polymerization assay (HTS-tubulin polymerization kit, Cytoskeleton). Format: biochemical. Conditions: 3 μM compound, fluorescence, 70 minutes at 37° C. How it is done:
1.5 ul of 10× strength compound, 20 μl of tubulin solution and Triton X-100 at a final concentration of 0.01% were added to each well in a 384 well plate. The reactions were assembled on ice to prevent tubulin pre-polymerization. For kinetic measurements, microtubule polymerization was monitored by reading the fluorescence at 420 nm (due to the incorporation of a fluorescent reporter into microtubules as polymerization occurs) every ten seconds using a Tecan M1000 microplate reader (FIG. 6B). […] Fluorescence increased as polymerization occurred, due to the incorporation of 4′,6-diamidino-2-phenylindole. Fluorescence was monitored every minute for 70 minutes at 37° C.
Tubulin polymerization reactions were carried out according to the manufacturer (Cytoskeleton, BK011P) in the presence of 3 μM colchicine, MI-181, taxol or DMSO. Polymerization was monitored with a Tecan M1000 micro-plate reader at 420 nm for 70 minutes at 37° C. The results are depicted in FIG. 11.

A further test concerns M397. The experiment in a line: CellTiter-Glo cell viability, M397. Format: cell-based. How it is done: as §1
In test [2] the test system is diverse panel of cancer cell lines. In words: Cell viability in a diverse panel of cancer cell lines. Format: cell-based. Conditions: HeLa, M233, U205, CCRF-CEM, NCI-H460; MCF7 excepted; read-out: cell viability IC50 across most cancer cell lines. On the procedure: as §1
The test system of the next test is M376. In words: CellTiter-Glo cell viability, M376. Format: cell-based. How it is done: as §1
The test system of the next test is M230. The experiment in a line: CellTiter-Glo cell viability, M230. Format: cell-based. How it is done:
as §1

The next test has as its system M296. The experiment in a line: CellTiter-Glo cell viability, M296. Format: cell-based. How it is done: as §1
The test system of another test is M243. The experiment in a line: CellTiter-Glo cell viability, M243. Format: cell-based. How it is done: as §1
Another test has as its system M318. The experiment in a line: CellTiter-Glo cell viability, M318. Format: cell-based. On the procedure:
as §1

The subject of a further test is M375. In words: CellTiter-Glo cell viability, M375. Format: cell-based. How it is done:
as §1

For `Cc1cc2nc(/C=C/c3cccnc3)sc2cc1C` [MI-181], the IC50 in the test with M238 is 30.5 nM; in test [1] it was 18 to 90 nM; in the test with M397, 18.1 nM; in test [2], 30 to 360 nM; with M376, 39.7 nM; with M230, 42 nM. In addition, the IC50 came to 36.7 nM in the test with M296, 26 nM in the test on M243, 54.9 nM in the test with M318 and 58.2 nM with M375. For the same compound, the “reversibility of induced mitotic arrest” value in the test with cells (FIG. 9) was “reversible”. In the test with cells (cells synchronized in G1/S, released in presence of drug), the “cell cycle state by immunoblot” value is “arrested in mitosis (p-H3 positive), activated the SAC (BubR1 remained phosphorylated) and stabilized cyclin B while degrading cyclin A”. For the same compound, in the test with cells (drug washout), the “time to exit mitosis after drug washout” value was not above 2 h. Further, the “inhibition of microtubule (tubulin) polymerization in vitro” value at tubulin is listed as “inhibits tubulin polymerization”.
